Results as given in US20260199564A1, “METHOD OF PREVENTING BLOOD COAGULATION AND DRUG-ELUTING IMPLANT FOR PERCUTANEOUS CORONARY INTERVENTION” (priority 2023, published 2026).

System: Human platelets
Assay: Platelet aggregation test (anticoagulant test), collagen-treated platelet-rich plasma
Type: cell-based
Conditions: PRP, 5 μg/ml collagen, CK 0-80 μM
Description: • a. A 20 mM CK stock solution is prepared with DMSO and is diluted with 1×PBS to the different working concentrations (0, 62.5, 125, 250, 500, 1000, and 2000 μM) before experiments.
The donator should rest and fast for 12 h and not smoke before blood collection. Medication such as antihistamines, antibiotics, Aspirin, and anti-inflammatory drugs are not allowed to take 10-14 days before tests due to the potential of affecting platelet function.
To ensure the absence of coagulation, the blood sample should be fully mixed with the anticoagulant and stored at 24-27° C. It is recommended to conduct the platelet aggregation test within 30-150 min after blood sample collection.
Slightly invert the blood collection tubes 3-4 times to resuspend the blood cells. Centrifuge the samples at 170×g for 7 min and transfer the supernatants to the new tubes. The samples should be used within 5-10 min after separation; otherwise, the samples should be stored at 4° C. to avoid agglutination. […]
To test the effect of CK on the function of platelet aggregation, different concentrations of CK (0, 2.5, 5, 10, 20, 40, and 80 μM) are added to 0.25 ml PRP. […] OD value is measured with a spectrometer at 650 nm, and the value is converted into an aggregate percentage.
The aggregation percentage of platelet is calculated with the following formula: […]

## CC(C)=CCC[C@](C)(O[C@@H]1O[C@H](CO)[C@@H](O)[C@H](O)[C@H]1O)[C@H]1CC[C@]2(C)[C@@H]1[C@H](O)C[C@@H]1[C@@]3(C)CC[C@H](O)C(C)(C)[C@@H]3CC[C@]12C [CK, Ginsenoside compound K]
  platelet aggregation level after treating the platelet with CK: decreased
